Laboratory results reported in US11180462B2, “Microbiocidal oxadiazole derivatives” (SYNGENTA PARTICIPATIONS AG, priority 2015, dated 2021).

What was measured:
[1] = tested on: Puccinia recondita f. Sp. Tritici; test: Fungicidal activity against Puccinia recondita f. sp. tritici / wheat / leaf disc preventative (brown rust); type: in vivo; conditions: foliar, 200 ppm in the applied formulation, wheat leaf segments, preventative, compared to untreated control leaf disks, read-out: disease control
Outline: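 Preventative leaf-segment test, wheat cv. Kanzler on water agar. Spray compound at 200 ppm, inoculate with spores 1 day later; 19° C., 75% rh, 12/12 h light. Read-out: % disease control vs untreated, 7 to 9 days after application.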

[2] = tested on: Glomerella lagenarium (Colletotrichum lagenarium); test: Fungicidal activity against Glomerella lagenarium (Colletotrichum lagenarium) liquid culture / cucumber / preventative (anthracnose); type: cell-based; conditions: Colletotrichum orbiculare; 20 ppm in the applied formulation; liquid culture (PDB), growth inhibition measured photometrically after 3 to 4 days; compared to untreated control; read-out: disease control
Outline: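 Photometric read-out of fungal growth after 2–7 days, expressed as percent antifungal activity versus untreated check. Cryo-stored conidia in PDB; compound at 20 ppm; dark, 24 °C, 96% RH.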

[3] = tested on: Phakopsora Pachyrhizi; test: Fungicidal activity against Phakopsora pachyrhizi / soybean / leaf disc preventative (Asian soybean rust); type: in vivo; conditions: foliar, 200 ppm in the applied formulation, soybean leaf disks, compared to untreated control leaf disks, read-out: disease control
Outline: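 Preventative soybean leaf-disc test: discs on water agar sprayed with diluted formulated compound, inoculated one day later with spores on the lower surface. Held 24–36 h dark at 20°C, 75% rh, then 12 h light/day; percent disease control versus untreated discs scored 12–14 days after application.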

[4] = tested on: Puccinia recondita f. Sp. Tritici; test: Fungicidal activity against Puccinia recondita f. sp. tritici / wheat / leaf disc curative (brown rust); type: in vivo; conditions: foliar, 24 h, 200 ppm in the applied formulation, wheat leaf segments, curative (applied 1 day after inoculation), compared to untreated control leaf disks, read-out: disease control
Outline: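 Segments of wheat cv. Kanzler were laid on agar and inoculated with a spore suspension of the rust, then held in darkness at 19° C and 75% relative humidity. One day later the water-diluted formulated compound was applied, with incubation continued under a 12 h light/dark cycle.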

O=C(c1ccccc1Cl)N(Cc1ccc(-c2noc(C(F)(F)F)n2)cc1)C1COC1 [Compound 1.740, 2-chloro-N-(oxetan-3-yl)-N-[[4-[5-(trifluoromethyl)-1,2,4-oxadiazol-3-yl]phenyl]methyl]-benzamide]
≥ 80%: pest or weed control at 200 ppm [1] | inhibition of growth at 20 ppm [2] | pest or weed control at 200 ppm [3] | pest or weed control at 200 ppm [4]

COCCC(=O)N(Cc1ccc(-c2noc(C(F)(F)F)n2)cc1)C1COC1 [Compound 1.741, 3-methoxy-N-(oxetan-3-yl)-N-[[4-[5-(trifluoromethyl)-1,2,4-oxadiazol-3-yl]phenyl]methyl]-propanamide]
≥ 80%: pest or weed control at 200 ppm [1] | inhibition of growth at 20 ppm [2] | pest or weed control at 200 ppm [3] | pest or weed control at 200 ppm [4]

O=C(C1CCC1)N(Cc1ccc(-c2noc(C(F)(F)F)n2)cc1)C1COC1 [Compound 1.742, N-(oxetan-3-yl)-N-[[4-[5-(trifluoromethyl)-1,2,4-oxadiazol-3-yl]phenyl]methyl]-cyclobutane-carboxamide]
≥ 80%: pest or weed control at 200 ppm [1] | inhibition of growth at 20 ppm [2] | pest or weed control at 200 ppm [3] | pest or weed control at 200 ppm [4]

CC1(C(=O)N(Cc2ccc(-c3noc(C(F)(F)F)n3)cc2)C2COC2)CC1 [Compound 1.743, 1-methyl-N-(oxetan-3-yl)-N-[[4-[5-(trifluoromethyl)-1,2,4-oxadiazol-3-yl]phenyl]methyl]-cyclopropane-carboxamide]
≥ 80%: pest or weed control at 200 ppm [1] | inhibition of growth at 20 ppm [2] | pest or weed control at 200 ppm [3] | pest or weed control at 200 ppm [4]

CCC(COC)C(=O)N(Cc1ccc(-c2noc(C(F)(F)F)n2)cc1)C1COC1 (stereo not shown) [Compound 1.745, 2-(methoxymethyl)-N-(oxetan-3-yl)-N-[[4-[5-(trifluoromethyl)-1,2,4-oxadiazol-3-yl]phenyl]methyl]-butanamide]
≥ 80%: pest or weed control at 200 ppm [1] | inhibition of growth at 20 ppm [2] | pest or weed control at 200 ppm [3] | pest or weed control at 200 ppm [4]

N#CC1(C(=O)N(Cc2ccc(-c3noc(C(F)(F)F)n3)cc2)C2COC2)CC1 [Compound 1.749, 1-cyano-N-(oxetan-3-yl)-N-[[4-[5-(trifluoromethyl)-1,2,4-oxadiazol-3-yl]phenyl]methyl]-cyclopropane-carboxamide]
≥ 80%: pest or weed control at 200 ppm [1] | inhibition of growth at 20 ppm [2] | pest or weed control at 200 ppm [3] | pest or weed control at 200 ppm [4]

O=C(CC(F)(F)F)N(Cc1ccc(-c2noc(C(F)(F)F)n2)cc1)C1COC1 [Compound 1.751, 3,3,3-trifluoro-N-(oxetan-3-yl)-N-[[4-[5-(trifluoromethyl)-1,2,4-oxadiazol-3-yl]phenyl]methyl]-propanamide]
≥ 80%: pest or weed control at 200 ppm [1] | inhibition of growth at 20 ppm [2] | pest or weed control at 200 ppm [3] | pest or weed control at 200 ppm [4]

CC(C)C(=O)N(O)Cc1ccc(-c2noc(C(F)(F)F)n2)cc1 [Compound 1.752, N-hydroxy-2-methyl-N-[[4-[5-(trifluoromethyl)-1,2,4-oxadiazol-3-yl]phenyl]methyl]-propanamide]
≥ 80%: pest or weed control at 200 ppm [1] | inhibition of growth at 20 ppm [2] | pest or weed control at 200 ppm [3] | pest or weed control at 200 ppm [4]

O=C(C1CC1(F)F)N(O)Cc1ccc(-c2noc(C(F)(F)F)n2)cc1 (stereo not shown) [Compound 1.753, 2,2-difluoroN-hydroxy-N-[[4-[5-(trifluoromethyl)-1,2,4-oxadiazol-3-yl]phenyl]methyl]-cyclopropane-carboxamide]
≥ 80%: pest or weed control at 200 ppm [1] | inhibition of growth at 20 ppm [2] | pest or weed control at 200 ppm [3] | pest or weed control at 200 ppm [4]

O=C(C1CCOC1)N(O)Cc1ccc(-c2noc(C(F)(F)F)n2)cc1 (stereo not shown) [Compound 1.756, N-hydroxy-N-[[4-[5-(trifluoromethyl)-1,2,4-oxadiazol-3-yl]phenyl]methyl]-tetrahydrofuran-3-carboxamide]
≥ 80%: pest or weed control at 200 ppm [1] | inhibition of growth at 20 ppm [2] | pest or weed control at 200 ppm [3] | pest or weed control at 200 ppm [4]

O=C(ON(Cc1ccc(-c2noc(C(F)(F)F)n2)cc1)C(=O)C1CCOC1)C1CCOC1 (stereo not shown) [Compound 1.757, [tetrahydrofuran-3-carbonyl-[[4-[5-(trifluoromethyl)-1,2,4-oxadiazol-3-yl]phenyl]methyl]-amino] tetrahydrofuran-3-carboxylate]
≥ 80%: pest or weed control at 200 ppm [1] | inhibition of growth at 20 ppm [2] | pest or weed control at 200 ppm [3] | pest or weed control at 200 ppm [4]

COCCC(=O)N(O)Cc1ccc(-c2noc(C(F)(F)F)n2)cc1 [Compound 1.758, N-hydroxy-3-methoxy-N-[[4-[5-(trifluoromethyl)-1,2,4-oxadiazol-3-yl]phenyl]methyl]-propanamide]
≥ 80%: pest or weed control at 200 ppm [1] | inhibition of growth at 20 ppm [2] | pest or weed control at 200 ppm [3] | pest or weed control at 200 ppm [4]

COCCC(=O)ON(Cc1ccc(-c2noc(C(F)(F)F)n2)cc1)C(=O)CCOC [Compound 1.759, [3-methoxy-propanoyl-[[4-[5-(trifluoromethyl)-1,2,4-oxadiazol-3-yl]phenyl]methyl]-amino] 3-methoxypropanoate]
≥ 80%: pest or weed control at 200 ppm [1] | inhibition of growth at 20 ppm [2] | pest or weed control at 200 ppm [3] | pest or weed control at 200 ppm [4]

CCC(=O)ON(Cc1ccc(-c2noc(C(F)(F)F)n2)cc1)C(=O)CC [Compound 1.760, [propanoyl-[[4-[5-(trifluoromethyl)-1,2,4-oxadiazol-3-yl)phenyl]methyl]-amino] propanoate]
≥ 80%: pest or weed control at 200 ppm [1] | inhibition of growth at 20 ppm [2] | pest or weed control at 200 ppm [3] | pest or weed control at 200 ppm [4]

O=C(C1CCC1)N(O)Cc1ccc(-c2noc(C(F)(F)F)n2)cc1 [Compound 1.761, N-hydroxy-N-[[4-[5-(trifluoromethyl)-1,2,4-oxadiazol-3-yl]phenyl]methyl]-cyclobutane-carboxamide]
≥ 80%: pest or weed control at 200 ppm [1] | inhibition of growth at 20 ppm [2] | pest or weed control at 200 ppm [3] | pest or weed control at 200 ppm [4]

O=C(ON(Cc1ccc(-c2noc(C(F)(F)F)n2)cc1)C(=O)C1CCC1)C1CCC1 [Compound 1.762, [cyclobutane-carbonyl-[[4-[5-(trifluoromethyl)-1,2,4-oxadiazol-3-yl]phenyl]methyl]-amino] cyclobutane-carboxylate]
≥ 80%: pest or weed control at 200 ppm [1] | inhibition of growth at 20 ppm [2] | pest or weed control at 200 ppm [3] | pest or weed control at 200 ppm [4]

CC1CC1C(=O)N(O)Cc1ccc(-c2noc(C(F)(F)F)n2)cc1 (stereo not shown) [Compound 1.763, N-hydroxy-2-methyl-N-[[4-[5-(trifluoromethyl)-1,2,4-oxadiazol-3-yl]phenyl]methyl]-cyclopropane-carboxamide]
≥ 80%: pest or weed control at 200 ppm [1] | inhibition of growth at 20 ppm [2] | pest or weed control at 200 ppm [3] | pest or weed control at 200 ppm [4]

CC1(C(=O)N(O)Cc2ccc(-c3noc(C(F)(F)F)n3)cc2)CC1 [Compound 1.764, N-hydroxy-1-methyl-N-[[4-[5-(trifluoromethyl)-1,2,4-oxadiazol-3-yl]phenyl]methyl]-cyclopropane-carboxamide]
≥ 80%: pest or weed control at 200 ppm [1] | inhibition of growth at 20 ppm [2] | pest or weed control at 200 ppm [3] | pest or weed control at 200 ppm [4]

CCC(C)C(=O)N(O)Cc1ccc(-c2noc(C(F)(F)F)n2)cc1 (stereo not shown) [Compound 1.765, N-hydroxy-2-methyl-N-[[4-[5-(trifluoromethyl)-1,2,4-oxadiazol-3-yl]phenyl]methyl]-butanamide]
≥ 80%: pest or weed control at 200 ppm [1] | inhibition of growth at 20 ppm [2] | pest or weed control at 200 ppm [3] | pest or weed control at 200 ppm [4]

CC1(C(=O)N(O)Cc2ccc(-c3noc(C(F)(F)F)n3)cc2)COC1 [Compound 1.766, N-hyd roxy-3-methyl-N-[[4-[5-(trifluoromethyl)-1,2,4-oxadiazol-3-yl]phenyl]methyl]-oxetane-3-c arboxamide]
≥ 80%: pest or weed control at 200 ppm [1] | inhibition of growth at 20 ppm [2] | pest or weed control at 200 ppm [3] | pest or weed control at 200 ppm [4]

CCC(COC)C(=O)N(O)Cc1ccc(-c2noc(C(F)(F)F)n2)cc1 (stereo not shown) [Compound 1.768, N-hydroxy-2-(methoxymethyl)-N-[[4-[5-(trifluoromethyl)-1,2,4-oxadiazol-3-yl]phenyl]methyl]-butanamide]
≥ 80%: pest or weed control at 200 ppm [1] | inhibition of growth at 20 ppm [2] | pest or weed control at 200 ppm [3] | pest or weed control at 200 ppm [4]

COCCCC(=O)N(O)Cc1ccc(-c2noc(C(F)(F)F)n2)cc1 [Compound 1.769, N-hydroxy-4-methoxy-N-[[4-[5-(trifluoromethyl)-1,2,4-oxadiazol-3-yl]phenyl]methyl]-butanamide]
≥ 80%: pest or weed control at 200 ppm [1] | inhibition of growth at 20 ppm [2] | pest or weed control at 200 ppm [3] | pest or weed control at 200 ppm [4]
